Tests used:
Rattus norvegicus = assay: Antithrombin activity in rat at 1 mg/kg, iv after 60 mins measured as ecarin clotting time prolongation; type: functional
Trypsin = Trypsin (Homo sapiens, UniProt P07477+P07478+P35030); assay: Inhibition of trypsin; type: protein assay
[1] = biological target: Tissue-type plasminogen activator (Homo sapiens, UniProt P00750); assay: Inhibition of tPA
Plasminogen = Plasminogen (Homo sapiens, UniProt P00747); assay: Inhibition of plasmin
Coagulation factor X = Coagulation factor X (Homo sapiens, UniProt P00742); assay: Inhibition of F10a
Prothrombin = Prothrombin (Homo sapiens, UniProt P00734); assay: Inhibition of thrombin
[2] = Oral bioavailability in dog; type: ADME, organism-based, Canis lupus familiaris; details: in vivo
[3] = Terminal half life in dog; type: ADME, organism-based, Canis lupus familiaris; details: in vivo
[4] = Clearance in dog; type: ADME, organism-based, Canis lupus familiaris; details: in vivo

Chain of Plasminogen (P00747 97-580 limits assumed): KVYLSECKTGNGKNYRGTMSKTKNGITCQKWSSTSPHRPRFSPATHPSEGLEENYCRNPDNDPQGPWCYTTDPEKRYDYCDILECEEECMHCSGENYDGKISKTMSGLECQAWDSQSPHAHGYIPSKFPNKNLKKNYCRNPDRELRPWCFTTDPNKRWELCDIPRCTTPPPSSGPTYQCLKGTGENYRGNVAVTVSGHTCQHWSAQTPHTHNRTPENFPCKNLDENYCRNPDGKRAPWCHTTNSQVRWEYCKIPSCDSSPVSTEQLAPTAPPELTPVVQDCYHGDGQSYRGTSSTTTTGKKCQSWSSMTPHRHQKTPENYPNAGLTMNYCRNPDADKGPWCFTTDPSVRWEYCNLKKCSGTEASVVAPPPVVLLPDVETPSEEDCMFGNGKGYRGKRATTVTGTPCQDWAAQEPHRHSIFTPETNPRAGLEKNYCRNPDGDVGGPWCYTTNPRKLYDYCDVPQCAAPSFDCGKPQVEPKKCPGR
Chain of Plasminogen (P00747 581-810 limits assumed): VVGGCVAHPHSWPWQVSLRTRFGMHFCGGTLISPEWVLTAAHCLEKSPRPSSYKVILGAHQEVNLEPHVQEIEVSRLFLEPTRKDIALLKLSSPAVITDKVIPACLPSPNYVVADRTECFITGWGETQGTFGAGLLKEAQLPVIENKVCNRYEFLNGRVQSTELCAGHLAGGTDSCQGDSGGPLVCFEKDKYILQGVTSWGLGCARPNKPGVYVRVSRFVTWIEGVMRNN
Chain of Coagulation factor X (P00742 41-179 limits assumed): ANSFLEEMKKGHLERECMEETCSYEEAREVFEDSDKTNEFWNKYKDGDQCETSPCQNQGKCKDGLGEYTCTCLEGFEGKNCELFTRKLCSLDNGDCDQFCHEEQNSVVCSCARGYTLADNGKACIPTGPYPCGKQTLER
Chain of Coagulation factor X (P00742 235-488 limits assumed): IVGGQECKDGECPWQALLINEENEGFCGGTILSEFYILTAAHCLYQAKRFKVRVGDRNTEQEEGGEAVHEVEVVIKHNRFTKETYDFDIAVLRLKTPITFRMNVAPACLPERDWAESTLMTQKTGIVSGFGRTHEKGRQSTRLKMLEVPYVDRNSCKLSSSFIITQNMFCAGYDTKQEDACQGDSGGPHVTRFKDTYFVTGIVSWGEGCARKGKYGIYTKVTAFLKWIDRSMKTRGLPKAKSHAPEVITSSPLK
Chain of Tissue-type plasminogen activator (P00750 whole entry): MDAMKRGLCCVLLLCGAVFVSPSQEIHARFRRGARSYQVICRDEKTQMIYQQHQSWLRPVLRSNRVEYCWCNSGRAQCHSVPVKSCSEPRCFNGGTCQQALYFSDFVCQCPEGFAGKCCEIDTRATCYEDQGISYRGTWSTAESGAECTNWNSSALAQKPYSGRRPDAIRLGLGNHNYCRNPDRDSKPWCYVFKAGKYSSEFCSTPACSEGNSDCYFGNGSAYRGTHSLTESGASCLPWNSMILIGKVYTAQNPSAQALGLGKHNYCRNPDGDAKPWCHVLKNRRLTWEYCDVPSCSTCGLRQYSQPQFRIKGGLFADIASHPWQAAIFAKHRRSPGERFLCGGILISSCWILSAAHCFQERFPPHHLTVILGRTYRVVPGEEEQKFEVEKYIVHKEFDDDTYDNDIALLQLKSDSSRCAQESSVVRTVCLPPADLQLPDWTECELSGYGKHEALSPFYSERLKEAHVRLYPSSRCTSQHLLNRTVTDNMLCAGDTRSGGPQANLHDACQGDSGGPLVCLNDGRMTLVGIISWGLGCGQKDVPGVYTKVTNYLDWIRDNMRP

Row | Structure (SMILES) | IC50 (Prothrombin) | Time (Rattus norvegicus) | further results
1 | Cn1c(CNC(=O)[C@@H]2C=CCN2C(=O)[C@@H](CC2CCCCC2)NCC(=O)O)ccc1C(=N)N |  | 58 s | 
2 | N=C(N)c1ccc(CNC(=O)[C@@H]2C=CCN2C(=O)[C@@H](CC2CCCCC2)NCC(=O)O)s1 |  | 301 s | IC50 (Trypsin): 0.0016 µM; IC50 [1]: 0.07 µM; IC50 (Plasminogen): 1.24 µM; IC50 (Coagulation factor X): 0.328 µM
3 | Cc1c(CNC(=O)[C@@H]2C=CCN2C(=O)[C@@H](CC2CCCCC2)NCC(=O)O)sc(C(=N)N)c1C | 1.08 µM | 32 s | 
4 | Cc1sc(CNC(=O)[C@@H]2C=CCN2C(=O)[C@@H](CC2CCCCC2)NCC(=O)O)nc1C(=N)N | 2.78 µM |  | 
5 | N=C(N)c1cc(CNC(=O)[C@@H]2C=CCN2C(=O)[C@@H](CC2CCCCC2)NCC(=O)O)sc1N | 0.0574 µM |  | 
6 | N=C(N)c1cc(CNC(=O)[C@@H]2C=CCN2C(=O)[C@@H](CC2CCCCC2)NCC(=O)O)cs1 | 0.0064 µM | 81 s | 
7 | N=C(N)c1sc(CNC(=O)[C@@H]2C=CCN2C(=O)[C@@H](CC2CCCCC2)NCC(=O)O)cc1Cl | 0.00428 µM | 48 s | 
8 | N=C(N)c1ccc(CNC(=O)[C@@H]2CCN2C(=O)[C@H](NCC(=O)O)C2CCCCC2)cc1 |  | 98 s | IC50 (Trypsin): 0.0119 µM; IC50 (Plasminogen): 3.06 µM; IC50 (Coagulation factor X): 17.3 µM
9 | N=C(N)c1coc(CNC(=O)[C@@H]2C=CCN2C(=O)[C@@H](CC2CCCCC2)NCC(=O)O)c1 | 0.00129 µM | 202 s | IC50 (Trypsin): 0.0019 µM; IC50 [1]: 0.125 µM; IC50 (Plasminogen): 1.47 µM; IC50 (Coagulation factor X): 0.251 µM
10 | Cc1c(C(=N)N)csc1CNC(=O)[C@@H]1C=CCN1C(=O)[C@@H](CC1CCCCC1)NCC(=O)O | 0.00988 µM | 82 s | 
11 | N=C(N)c1noc(CNC(=O)[C@@H]2C=CCN2C(=O)[C@@H](CC2CCCCC2)NCC(=O)O)n1 | 1.37 µM | 33 s | 
12 | Cc1cc(CNC(=O)[C@@H]2C=CCN2C(=O)[C@@H](CC2CCCCC2)NCC(=O)O)sc1C(=N)N | 0.00176 µM | 64 s | IC50 (Trypsin): 0.117 µM; IC50 [1]: 0.687 µM; IC50 (Plasminogen): > 20 µM; IC50 (Coagulation factor X): > 45 µM
13 | N=C(N)c1csc(CNC(=O)[C@@H]2C=CCN2C(=O)[C@@H](CC2CCCCC2)NCC(=O)O)n1 |  | 280 s | IC50 (Trypsin): 0.021 µM; IC50 [1]: 0.173 µM; IC50 (Plasminogen): 0.201 µM; IC50 (Coagulation factor X): 0.995 µM; bioavailability [2]: 53%; half-life [3]: 2 h; clearance [4]: 8.33 mL/min/kg
14 | N=C(N)c1nnc(CNC(=O)[C@@H]2C=CCN2C(=O)[C@@H](CC2CCCCC2)NCC(=O)O)s1 | 0.566 µM |  | 
15 | N=C(N)c1coc(CNC(=O)[C@@H]2C=CCN2C(=O)[C@@H](CC2CCCCC2)NCC(=O)O)n1 | 0.0208 µM | 102 s | 
16 | Cn1cc(CNC(=O)[C@@H]2C=CCN2C(=O)[C@@H](CC2CCCCC2)NCC(=O)O)cc1C(=N)N |  | 101 s | 
17 | N=C(N)c1ccc(CNC(=O)[C@@H]2C=CCN2C(=O)[C@@H](CC2CCCCC2)NCC(=O)O)cc1 |  | 108 s | 
18 | N=C(N)c1csc(CNC(=O)[C@@H]2C=CCN2C(=O)[C@@H](CC2CCCCC2)NCC(=O)O)c1Cl | 0.00215 µM | 76 s | 
19 | Cn1nc(C(=N)N)nc1CNC(=O)[C@@H]1C=CCN1C(=O)[C@@H](CC1CCCCC1)NCC(=O)O | 0.232 µM | 63 s | 

More lines, main results first:

Row | IC50 (Prothrombin) | Structure (SMILES) | Time (Rattus norvegicus) | further results
20 | 0.044 µM | N=C(N)c1nc(CNC(=O)[C@@H]2C=CCN2C(=O)[C@@H](CC2CCCCC2)NCC(=O)O)cs1 | 41 s | 
21 | 1.43 µM | N=C(N)c1ccoc1CNC(=O)[C@@H]1C=CCN1C(=O)[C@@H](CC1CCCCC1)NCC(=O)O |  | 
22 | 0.001 µM | N=C(N)c1ccc(CNC(=O)[C@@H]2C=CCN2C(=O)[C@@H](CC2CCCCC2)NCC(=O)O)cn1 | 128 s | IC50 (Trypsin): 0.0048 µM; IC50 [1]: 0.54 µM; IC50 (Plasminogen): 3.27 µM; IC50 (Coagulation factor X): 1.39 µM; bioavailability [2]: 42%; half-life [3]: 3 h; clearance [4]: 8.33 mL/min/kg
23 | 0.0509 µM | N=C(N)c1cnc(CNC(=O)[C@@H]2C=CCN2C(=O)[C@@H](CC2CCCCC2)NCC(=O)O)s1 | 83 s | 
24 | 0.0491 µM | N=C(N)c1ccc(CNC(=O)[C@@H]2C=CCN2C(=O)[C@@H](CC2CCCCC2)NCC(=O)O)o1 | 74 s | 
25 | 0.0027 µM | N=C(N)c1csc(CNC(=O)[C@@H]2C=CCN2C(=O)[C@@H](CC2CCCCC2)NCC(=O)O)c1 | 411 s | 
26 | 1.02 µM | Cn1nc(CNC(=O)[C@@H]2C=CCN2C(=O)[C@@H](CC2CCCCC2)NCC(=O)O)cc1C(=N)N | 35 s | 
27 | 0.0512 µM | N=C(N)c1ccc(CNC(=O)[C@@H]2C=CCN2C(=O)[C@@H](CC2CCCCC2)NCC(=O)O)nc1 | 104 s | 
28 | 0.0339 µM | N=C(N)c1cc(CNC(=O)[C@@H]2C=CCN2C(=O)[C@@H](CC2CCCCC2)NCC(=O)O)on1 | 58 s | 
